Entries after “also recorded” stand apart in the source; their conditions may differ.
Columns and labels:
phospho-AMPK = phospho-AMPK expression / AMPK activation, immunoblot in 3T3 L1 preadipocytes; type: cell-based; conditions: 24 hours; for phospho-AMPK expression compared to control: 60 μM; for phosphorylated AMPK expression vs control: 3T3L1 preadipocytes, 100 μM
Method: 3T3L1 cells were purchased from American Type Culture Collection (Manassas, Va., USA) and cultured in DMEM media containing 4.5 g/l glucose supplemented with 10% fetal bovine serum (Hyclone), 2 mM L-glutamine (Gibco), 100 U/ml penicillin, and 100 μg/ml streptomycin (Gibco). The cells were cultured at 37° C. in a humidified atmosphere with 10% CO2.
The 3T3L1 cells were plated at 6×10^4 cells/well in 12 well plates and incubated at 37° C. in a humidified atmosphere with 10% CO2. […] The media was removed, cells were washed with PBS, and cell lysates were collected on ice. Proteins were extracted using RIPA buffer along with protease and phosphatase inhibitors. Lysates were centrifuged for 30 min at high speed; supernatant was collected and stored at […] until further analysis. The vehicle controls were 3T3 L1 cells without any treatment with drugs or other compounds. The drugs or compounds that were used in all the experiments were dissolved or diluted in dimethylsulfoxide (DMSO) as diluent. In all experiments, the controls were treated with the same volume of DMSO as was used to dissolve drugs or compounds in compound-treated cells to show and ensure that the actual change in protein expression in different treatments was due solely to the compounds or combination of compounds and not to the DMSO.
Protein concentrations were measured using a BCA (bicinchoninic acid) protein assay kit (Cat.#23225; Pierce, Rockford, Ill.). Twenty (20) μg/lane of total cellular protein samples containing NuPAGE LDS sample buffer (Invitrogen) and reducing agent were loaded into 4-12% NuPAGE Bis-Tris gels (Invitrogen), subjected to gel electrophoresis, and transferred to polyvinylidene fluoride membranes (Amersham). For SIRT1 proteins, membranes were blocked in 0.05% TBS-Tween with 3% milk for 1 hour, incubated overnight at +4° C. with SIRT1 primary antibodies (Cat.#07-131, Millipore). For phospho-AMPKα and AMPKα proteins, blocking was done for 1 hour in 0.1% TBS-Tween with 5% milk. The membranes were incubated overnight at +4° C. with phospho-AMPKα (Cat. #2535, Cell Signaling) and AMPKα (Cat.#2532, Cell Signaling) primary antibodies. Horseradish peroxidase-conjugated anti-rabbit antibodies (Cat. #NA934V GE Health Care, Amersham, U.K) were used as secondary antibodies. For α-tubulin (loading control), membranes were blocked in 0.05% PBS-Tween with 3% milk for 1 hour, incubated with α-tubulin (Cat.# B-5-1-2, Sigma) primary antibodies for 1 hour at room temperature and horseradish peroxidase-conjugated anti-mouse (Cat. # NA 931V GE Health Care, Amersham, U.K.) IgG antibodies were used as secondary antibodies.
The membranes were developed using chemiluminescence (ECL plus, GE Health Care), and images were captured in an Image Quant RT-ECL machine (version 1.0.1; GE Health Care). Densitometry and quantification of the bands were done by applying Quantity One software (Bio-Rad). The expression levels of the proteins were normalized to α-tubulin protein levels.

[1] = tested on: mitochondria of 3T3L1 preadipocytes; assay: Mitochondrial staining with MitoTracker green, confocal microscopy; type: cell-based; conditions: 60 μM, 24 hours
Method: The 3T3L1 preadipocytes were plated onto Ibidi u-slide 8 well plates at 1.6×10^4 cells/well and incubated at 37° C. in a humidified atmosphere with 10% CO2. The media was removed after 24 hours, the cells were treated with 60 μM GR24 and incubated for 24 hours at 37° C. in a humidified atmosphere with 10% CO2. After 24 hours of treatment, staining of mitochondria was done using 200 nM MitoTracker Mitochondrion-Selective Probes (Green FM probes Cat.#M7514, Invitrogen) according to the manufacturer's instructions. The cells were observed using a confocal microscope and images were taken at 40× oil immersion.
Preadipocytes were treated with DMSO (Vehicle control) (FIG. 5A), 60 μM resveratrol (FIG. 5B) or 60 μM strigolactone analog GR24 (FIG. 5C) for 24 hours. Next, preadipocytes were stained with MitoTracker green and observed under a confocal microscope at 40× oil immersion. […] The white oval shaped structures are nucleus and the white thread-like structures around the nucleus in the cytoplasm are mitochondria. When compared to the control, there was an increase in mitochondrial biogenesis represented by elongated mitochondria, and an increase in mitochondrial activation represented by the intensity of fluorescence, in cells treated with resveratrol and GR24. […] Thus, GR24 enhances both biogenesis and activity of mitochondria, which is necessary to generate ATP.

fungal cell = conditions: cited from earlier work

CC1=CC(O/C=C2/C(=O)O[C@@H]3c4ccccc4C[C@H]23)OC1=O (some centres unmarked) [GR24]
AMPK activation (pAMPK/AMPK/α-tubulin ratio) compared to control (phospho-AMPK; 3T3 L1 preadipocytes, 60 μM each compound): no activation | phospho-AMPK expression compared to control (phospho-AMPK; 3T3 L1 preadipocytes): significant increase in expression with resveratrol but not with GR24; also recorded: did not | phospho-AMPK expression compared to control (phospho-AMPK; 3T3 L1 preadipocytes, listed as GR 24): significant increase in expression with resveratrol but not with GR 24 | phosphorylated AMPK expression vs control (phospho-AMPK): down-regulated | phosphorylated AMPK expression vs control (phospho-AMPK; listed as GR 24): down-regulation | increase in intensity of staining, visibility [1]: clearly visible only in the GR24 treated cells | mitochondrial activation (intensity of fluorescence) compared to control [1]: increase | mitochondrial biogenesis (elongated mitochondria) compared to control [1]: increase | ATP content of the fungal cell (fungal cell): rapid increase | NADH concentration (fungal cell): rapid increase | NADH dehydrogenase activity (fungal cell): rapid increase
